Molecules are shown by their SMILES.

The target of test [1] is KDR kinase (790-1356 AA) (Homo sapiens (Human), UniProt P35968). The test is described as follows: Inhibitory activity at KDR kinase (Lance Ultra Ulight-TK assay). The format is biochemical. Summed up:
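Kinase (20 nM final) and compound were premixed 20 min at 30 °C, then phosphorylation ran 2 h at 30 °C with ATP at 90 μM and Ulight-TK substrate at 50 μM, pH 7.5, Mg2+ and Mn2+ present.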

In test [2] the target is B-Raf kinase (Homo sapiens (Human), UniProt P15056). The test can be described thus: Inhibitory activity at B-Raf kinase (ADP-GLO assay). It counts as biochemical. How it is done: Inhibitory Activity of Compounds at B-Raf Kinase
B-Raf kinase, sequence (P15056 416-766): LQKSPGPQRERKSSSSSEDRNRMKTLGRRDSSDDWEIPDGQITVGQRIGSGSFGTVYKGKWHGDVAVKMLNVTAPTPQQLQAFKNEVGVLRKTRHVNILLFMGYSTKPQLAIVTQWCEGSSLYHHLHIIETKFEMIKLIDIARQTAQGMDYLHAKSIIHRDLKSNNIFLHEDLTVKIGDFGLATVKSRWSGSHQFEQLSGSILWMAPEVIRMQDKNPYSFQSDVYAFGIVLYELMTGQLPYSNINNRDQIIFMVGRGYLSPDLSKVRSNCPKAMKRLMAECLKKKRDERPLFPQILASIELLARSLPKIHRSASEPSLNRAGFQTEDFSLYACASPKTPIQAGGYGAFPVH
• [Experimental method]: Use ADP-GLO™ assay kit from Promega to evaluate the inhibitory activity of compounds at B-Raf • [Instrument]: PerKinElmer's ENVISION plate reader • [Material]: Optiplate-384 well plate (PerKinElmer), kinase buffer (50 mM Hepes pH7.5, 1 mM EGTA, 2 mM DTT, 10 mM Mg^2+, 0.05% BSA), B-Raf kinase (Millipore, catalogue #14-530-K), GST-MEK1 substrate (Carna, catalogue #07-141-10), Super pure ATP (Promega), ADP-GLO™ assay kit (Promega, catalogue # V9102), DMSO (Sigma, catalogue #34869), purified water (Millipore, type: Milli-Q). • [Study conditions]: Mix B-Raf kinase (final concentration: 5 nM) and compound (DMSO final concentration: 0.25%) and preincubate at 30° C. for 20 min, then add ATP (final concentration: 6 μM) and reaction substrate (final concentration: 30 nM), React for 2 hrs at 30° C. After reaction, add ADP-GLO™ reagent, react for 40 min at room temperature, then add ADP-GLO™ detecting agent, react for 30 min at room temperature. After that, use ENVSION to measure the […]. • [Samples]: Compounds in the examples and Sorafenib (positive control) • [Data analysis]: Use CBIS data analysis software to calculate IC50 values

Test [3] relates to pERK in MDA-MB-231 cells. The test can be described thus: Inhibitory activity at pERK (In Cell Western, MDA-MB-231 cells). It counts as cell-based. The following applies: Homo sapiens, MDA-MB-231, MDA-MB-231 cells; read-out: MDA-MB-231 pERK IC50. Summed up: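 pERK was measured by in-cell immunofluorescence (PI nuclear counterstain, Acumen read-out) in fixed MDA-MB-231 cells. Compound exposure lasted 2 h in DMEM with 0.1% BSA, using eight 3-fold dilutions starting at 30 μM final and 0.3% DMSO. IC50 values were derived from the resulting curves.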

Test [4] deals with PLC-PRF-5 cells. The test is described as follows: Inhibition of proliferation of PLC-PRF-5 cells (ATPlite). The format is cell-based. The following applies: Homo sapiens, PLC-PRF-5, PLC-PRF-5 cells; read-out: PLC-PRF-5 cell proliferation IC50. Put shortly: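 Antiproliferative IC50 from luminescent ATP detection (ATPlite) after 96 h compound exposure at 37 °C. Cells grown in DMEM plus 10% FBS and allowed 2 h to settle, then dosed with eight 3-fold dilutions topping at 30 μM final, DMSO 0.3%.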
(ATP-based viability assays read luminescence as a measure of living cells.)

KDR kinase (790-1356 AA), sequence (P35968 790-1356): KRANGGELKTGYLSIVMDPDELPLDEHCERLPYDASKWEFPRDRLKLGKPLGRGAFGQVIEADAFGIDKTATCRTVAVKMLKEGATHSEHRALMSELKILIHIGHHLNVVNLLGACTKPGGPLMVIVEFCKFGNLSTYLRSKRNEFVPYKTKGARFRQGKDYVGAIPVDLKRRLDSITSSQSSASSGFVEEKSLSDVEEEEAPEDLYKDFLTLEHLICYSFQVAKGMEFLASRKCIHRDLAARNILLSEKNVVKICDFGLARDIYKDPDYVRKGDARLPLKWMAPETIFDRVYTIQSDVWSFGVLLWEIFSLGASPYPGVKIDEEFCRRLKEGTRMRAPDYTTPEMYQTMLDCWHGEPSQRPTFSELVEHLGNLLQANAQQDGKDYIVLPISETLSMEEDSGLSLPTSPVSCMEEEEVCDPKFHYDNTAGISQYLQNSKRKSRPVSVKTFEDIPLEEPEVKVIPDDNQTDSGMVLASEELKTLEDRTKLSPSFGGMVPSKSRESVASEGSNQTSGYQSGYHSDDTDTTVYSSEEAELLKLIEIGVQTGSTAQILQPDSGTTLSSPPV

`O=C(Nc1ccc(Oc2ccnc(NC(=O)C3CC3)c2)cc1F)Nc1cc(C(F)(F)F)ccc1Cl` [Exe. 210]: the IC50 in test [1] was 11.8 nM; in test [2] it was 19 nM; in test [3], 17 nM; in test [4], 636 nM.

Turning to `CC(F)(F)c1cncc(NC(=O)Nc2ccc(Oc3ccnc(NC(=O)C4CC4)c3)cc2)c1` [Exe. 065], the IC50 was 6.5 nM in test [1], 25 nM in test [2], 46.5 nM in test [3] and 162 nM in test [4].

As for `COc1ccc(NC(=O)Nc2cnc(Oc3ccnc(NC(=O)C4CC4)c3)c(C)c2)cc1C(F)(F)F` [Exe. 125], the IC50 in test [1] came out at 8.7 nM; in test [2], 8.6 nM; in test [3] it was 4.7 nM; in test [4], 1720 nM.

`O=C(Nc1ccc(Oc2ccnc(NC(=O)C3CC3)c2)cc1)Nc1cc(F)cc(C(F)(F)F)c1` [Exe. 141]: the IC50 in test [1] is 7.1 nM; in test [2], 125 nM; in test [3], 40.4 nM; in test [4] it was 642 nM.

`O=C(Nc1cc(F)cc(Oc2ccnc(NC(=O)C3CC3)c2)c1)Nc1ccc(Cl)c(C(F)(F)F)c1` [Exe. 024]: the IC50 in test [1] amounted to 33.8 nM; in test [2], 5.1 nM; in test [3], 19.5 nM; in test [4], 4240 nM.

For the compound `CC(F)(F)c1ccc(F)c(NC(=O)Nc2ccc(Oc3ccnc(NC(=O)C4CC4)c3)cc2)c1` [Exe. 148], the IC50 in test [1] worked out at 6.2 nM; in test [2], 16 nM; in test [3] it was 7.7 nM; in test [4], 240 nM.

For the compound `Cc1ccc(Oc2ccnc(NC(=O)C3CC3)c2)cc1NC(=O)Nc1cc(F)cc(C(F)(F)F)c1` [Exe. 224], the IC50 is 9.5 nM in test [1], 29 nM in test [2], 22.4 nM in test [3] and 4700 nM in test [4].

`O=C(Nc1ccc(F)c(C(F)(F)F)c1)Nc1ccc(Oc2ccnc(NC(=O)C3CC3)c2)cc1F` [Exe. 205]: the IC50 turned out to be 25.1 nM in test [1], 13 nM in test [2], 9.2 nM in test [3] and 1090 nM in test [4].

Consider `O=C(Nc1ccc(Oc2ccnc(NC(=O)C3CC3)c2)cc1)Nc1ccc2c(c1)C(F)(F)CCO2` [Exe. 151], for which the IC50 worked out at 4.5 nM in test [1], 3.3 nM in test [2], 3.6 nM in test [3] and 608 nM in test [4].

With `Cc1cc(Oc2cc(NC(=O)C3CC3)ncn2)ccc1NC(=O)Nc1cccc(C(F)(F)F)c1` [Exe. 074], the IC50 stood at 10.5 nM in test [1], 146 nM in test [2], 77.5 nM in test [3] and 6070 nM in test [4].

As to `O=C(Nc1ccc(Oc2cc(NC(=O)C3CC3)ncn2)cc1F)Nc1cc(C(F)(F)F)ccc1F` [Exe. 107], the IC50 in test [1] stood at 13.4 nM; in test [2], 31 nM; in test [3] it was 20.2 nM; in test [4], 324 nM.

On to `CN1CCC(Nc2ccc(NC(=O)Nc3ccc(Oc4ccnc(NC(=O)C5CC5)c4)c(F)c3)cc2C(F)(F)F)CC1` [Exe. 168], for which the IC50 in test [1] worked out at 12 nM; in test [2], 7.9 nM; in test [3], 11.6 nM; in test [4], 31 nM.

As to `O=C(Nc1cc(F)cc(C(F)(F)F)c1)Nc1ccc(Oc2ccnc(NC(=O)C3CC3)c2)cc1F` [Exe. 208], the IC50 in test [1] was 14.9 nM; in test [2] it was 37 nM; in test [3], 9.8 nM; in test [4], 640 nM.

As to `Cc1ccc(Oc2ccnc(NC(=O)C3CC3)c2)cc1NC(=O)Nc1ccc(Cl)c(C(F)(F)F)c1` [Exe. 030], the IC50 is 12.4 nM in test [1], 18 nM in test [2], 23.2 nM in test [3] and 2800 nM in test [4].

On to `CC(F)(F)c1ccc(F)c(NC(=O)Nc2ccc(Oc3ccnc(NC(=O)C4CC4)c3)cc2F)c1` [Exe. 218], for which the IC50 in test [1] is 9.1 nM; in test [2] it was 7.8 nM; in test [3], 3.1 nM; in test [4], 21 nM.

Take `Cc1cc(NC(=O)Nc2ccc(F)c(C(F)(F)F)c2)ccc1Oc1ccnc(NC(=O)C2CC2)c1` [Exe. 230]: the IC50 in test [1] came to 11.7 nM; in test [2], 20.7 nM; in test [3], 12 nM; in test [4], 830 nM.

For the compound `CN1CCC(Oc2ccc(NC(=O)Nc3ccc(Oc4ccnc(NC(=O)C5CC5)c4)c(F)c3)cc2C(F)(F)F)CC1` [Exe. 188], the IC50 is 17.2 nM in test [1], 19 nM in test [2], 23.5 nM in test [3] and 34 nM in test [4].

Take `N#Cc1cc(NC(=O)Nc2ccc(Oc3ccnc(NC(=O)C4CC4)c3)cc2)cc(C(F)(F)F)c1` [Exe. 152]: the IC50 in test [1] worked out at 7.1 nM; in test [2], 72 nM; in test [3] it was 33 nM; in test [4], 390 nM.

On to `CN1CCC(Nc2cc(NC(=O)Nc3ccc(Oc4ccnc(NC(=O)C5CC5)c4)c(F)c3)cc(C(F)(F)F)c2)CC1` [Exe. 161], for which the IC50 is 12.2 nM in test [1], 7.9 nM in test [2], 86.9 nM in test [3] and 1340 nM in test [4].

With `Cc1cc(NC(=O)Nc2cc(C(C)(F)F)ccc2F)ccc1Oc1ccnc(NC(=O)C2CC2)c1` [Exe. 234], the IC50 in test [1] was 9.9 nM; in test [2] it was 16 nM; in test [3], 6.8 nM; in test [4], 63 nM.

Consider `CC(F)(F)c1cc(NC(=O)Nc2ccc(Oc3ccnc(NC(=O)C4CC4)c3)cc2F)ccc1Cl` [Exe. 219], for which the IC50 came out at 11 nM in test [1], 8.3 nM in test [2], 8.8 nM in test [3] and 632 nM in test [4].

`O=C(Nc1cccc(C(F)(F)F)c1)Nc1ccc(Oc2cc(NC(=O)C3CC3)ncn2)cc1F` [Exe. 108]: the IC50 worked out at 8.6 nM in test [1], 41 nM in test [2], 20 nM in test [3] and 1610 nM in test [4].

Turning to `CC(F)(F)c1cc(NC(=O)Nc2ccc(Oc3ccnc(NC(=O)C4CC4)c3)cc2F)ccc1F` [Exe. 220], the IC50 in test [1] is 14.9 nM; in test [2], 7.1 nM; in test [3] it was 4.6 nM; in test [4], 240 nM.

For the compound `CN1CC(Oc2cc(NC(=O)Nc3ccc(Oc4ccnc(NC(=O)C5CC5)c4)cc3)cc(C(F)(F)F)c2)C1` [Exe. 241, N-[4-[4-[[3-(1-methylazetidin-3-yl)oxy-5-(trifluoromethyl)phenyl]carbamoylamino]phenoxy]-2-pyridyl]cyclopropanecarboxamide], the IC50 in test [1] stood at 17.9 nM; in test [2], 9.1 nM; in test [3], 61.5 nM; in test [4], 1770 nM.

For `CC(F)(F)c1cc(NC(=O)Nc2ccc(Oc3ccnc(NC(=O)C4CC4)c3)c(F)c2)ccc1F` [Exe. 183], the IC50 in test [1] is 13.6 nM; in test [2], 56 nM; in test [3], 15.7 nM; in test [4] it was 230 nM.

`O=C(Nc1ccc(Oc2ccnc(NC(=O)C3CC3)c2)nc1)Nc1ccc(Cl)c(C(F)(F)F)c1` [Exe. 020]: the IC50 was determined as 5.8 nM in test [1], 19.7 nM in test [2], 291 nM in test [3] and 1990 nM in test [4].

As to `Cc1cc(Oc2ccnc(NC(=O)C3CC3)c2)ccc1NC(=O)Nc1ccc(Cl)c(C(C)(F)F)c1` [Exe. 199], the IC50 in test [1] amounted to 14 nM; in test [2] it was 11.7 nM; in test [3], 11 nM; in test [4] it was 3700 nM.

Regarding `CC(F)(F)c1ccc(F)c(NC(=O)Nc2ccc(Oc3cc(NC(=O)C4CC4)ncn3)cc2F)c1` [Exe. 109], the IC50 was 10.9 nM in test [1], 32 nM in test [2], 9.8 nM in test [3] and 274 nM in test [4].

On to `CC(F)(F)c1ccc(F)c(NC(=O)Nc2ccc(Oc3ccnc(NC(=O)C4CC4)c3)c(F)c2)c1` [Exe. 181], for which the IC50 is 7.1 nM in test [1], 4.8 nM in test [2], 25.7 nM in test [3] and 23 nM in test [4].

As to `Nc1cc(NC(=O)Nc2ccc(Oc3ccnc(NC(=O)C4CC4)c3)c(F)c2)cc(C(F)(F)F)c1` [Exe. 239], the IC50 in test [1] was determined as 9.7 nM; in test [2], 7 nM; in test [3] it was 27.2 nM; in test [4], 930 nM.

`N#Cc1cc(NC(=O)Nc2ccc(Oc3ccnc(NC(=O)C4CC4)c3)c(F)c2)cc(C(F)(F)F)c1` [Exe. 190]: the IC50 was found to be 11.9 nM in test [1], 87 nM in test [2], 74.3 nM in test [3] and 875 nM in test [4].

The record behind these values is US9359338B2, “Cyclopropanecarboxamido-substitute aromatic compounds as anti-tumor agents” (Crown Bioscience Inc. (Taiwan), priority 2012, dated 2016).
